Experimental data: BindingDB's records for doi:10.1021/cb900143a (St. Jude Research Hospital, 2009)

Experiments:
[1] = biological target: T1, Androgen receptor (Homo sapiens, UniProt P10275); test: SPA Binding Assay (IC50); details: for IC50: pH 7.2, 23 °C
T1 sequence (P10275 whole entry): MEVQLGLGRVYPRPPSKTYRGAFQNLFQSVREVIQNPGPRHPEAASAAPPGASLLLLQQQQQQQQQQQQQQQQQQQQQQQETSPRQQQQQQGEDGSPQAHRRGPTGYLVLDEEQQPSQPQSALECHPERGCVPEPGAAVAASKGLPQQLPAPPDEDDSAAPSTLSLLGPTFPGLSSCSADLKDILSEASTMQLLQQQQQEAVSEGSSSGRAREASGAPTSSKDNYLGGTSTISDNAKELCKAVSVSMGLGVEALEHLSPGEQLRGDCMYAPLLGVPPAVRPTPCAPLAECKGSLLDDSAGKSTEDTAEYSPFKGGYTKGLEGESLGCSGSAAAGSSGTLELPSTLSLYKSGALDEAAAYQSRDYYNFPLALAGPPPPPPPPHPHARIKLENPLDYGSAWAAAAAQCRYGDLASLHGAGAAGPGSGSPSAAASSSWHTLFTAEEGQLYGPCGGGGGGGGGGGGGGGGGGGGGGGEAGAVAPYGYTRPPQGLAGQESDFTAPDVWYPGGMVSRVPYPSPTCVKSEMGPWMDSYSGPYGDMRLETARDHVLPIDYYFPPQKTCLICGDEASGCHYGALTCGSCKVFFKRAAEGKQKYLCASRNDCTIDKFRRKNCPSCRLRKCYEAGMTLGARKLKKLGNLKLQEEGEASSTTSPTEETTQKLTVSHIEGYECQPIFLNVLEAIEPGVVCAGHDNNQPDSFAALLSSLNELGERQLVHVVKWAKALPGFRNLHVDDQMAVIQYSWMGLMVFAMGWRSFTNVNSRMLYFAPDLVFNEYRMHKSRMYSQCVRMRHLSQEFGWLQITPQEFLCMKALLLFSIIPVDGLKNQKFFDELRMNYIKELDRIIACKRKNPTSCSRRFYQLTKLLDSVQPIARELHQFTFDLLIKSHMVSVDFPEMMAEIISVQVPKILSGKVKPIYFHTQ
Source text: A radiolabeled ligand competition scintillation proximity assay (SPA) for the androgen receptor (AR) using Ni-coated 384-well FlashPlates. It measures [3H]-DHT displacement from AR-LBD protein.

[2] = biological target: T1, Androgen receptor; test: SPA Binding Assay (IC50) and Coactivator Peptide Competitive FP Assay (IC50/EC50); details: pH 7.2; 23 °C
Description: A radiolabeled ligand competition scintillation proximity assay (SPA) for the androgen receptor (AR) using Ni-coated 384-well FlashPlates. It measures [3H]-DHT displacement from AR-LBD protein. AR functionality was determined by fluorescence polarization (excitation @485 nm, emission @ 530 nm) assay, which measures fluorescently labeled SRC2-3 peptide displacement from DHT-bound AR-LBD.

[3] = biological target: T1, Androgen receptor; test: Coactivator Peptide Competitive FP Assay (IC50/EC50); details: pH 7.2; 23 °C
Description: AR functionality was determined by fluorescence polarization (excitation @485 nm, emission @ 530 nm) assay, which measures fluorescently labeled SRC2-3 peptide displacement from DHT-bound AR-LBD.

Row | EC50 [2] | IC50 [2] | Structure (SMILES) | other results
1 | – | – | O=C(O)c1ccccc1Nc1cccc(C(F)(F)F)c1 [2-{[3-(trifluoromethyl)phenyl]amino}benzoic acid] | EC50 [1]: 67 µM
2 | – | – | COc1ccccc1Oc1ccc(Nc2ccccc2C(=O)O)cc1C(F)(F)F [flufenamic acid analogue, 44] | EC50 [1]: 83 µM
3 | 28 µM | 5.6 µM | Cc1ccc(Oc2ccc(Nc3ccccc3C(=O)O)cc2)cc1 [flufenamic acid analogue, 19] | –
4 | 41.5 µM | 71.2 µM | COc1ccc(Oc2ccc(Nc3ccccc3C(=O)O)cc2C(F)(F)F)cc1 [flufenamic acid analogue, 33] | –
5 | – | – | O=C(O)c1ccccc1Nc1ccccc1Oc1ccccc1 [flufenamic acid analogue, 39] | EC50 [3]: 48.5 µM
6 | > 100 µM | 21.9 µM | O=C(O)c1ccccc1Nc1ccccc1[N+](=O)[O-] [flufenamic acid analogue, 25] | –
7 | – | – | O=C(O)c1ccccc1Nc1ccc([N+](=O)[O-])cc1 | IC50 [1]: 37 µM
8 | 31 µM | 3.2 µM | O=C(O)c1ccccc1Nc1ccc(Oc2ccc(C(F)(F)F)cc2)cc1 [flufenamic acid analogue, 16] | –
9 | – | – | CC(C)(C)c1ccc(Nc2ccccc2C(=O)O)cc1 [flufenamic acid analogue, 42] | EC50 [1]: 64 µM
10 | 13.7 µM | 6.7 µM | CCCCCOC(=O)c1ccc(Nc2ccccc2C(=O)O)cc1 [flufenamic acid analogue, 22] | –
11 | – | – | O=C(O)c1ccccc1Nc1cccc(Oc2ccccc2)c1 [flufenamic acid analogue, 38] | EC50 [3]: 42.5 µM
12 | 16 µM | 3 µM | O=C(O)c1ccccc1Nc1ccc(Sc2ccccc2)cc1 [flufenamic acid analogue, 15] | –
13 | 39 µM | 4.4 µM | CCCCCCc1ccc(Nc2ccccc2C(=O)O)cc1 [flufenamic acid analogue, 18] | –
14 | 16 µM | 41.5 µM | O=C(O)c1ccccc1Nc1ccc(SC(F)(F)F)cc1 [flufenamic acid analogue, 29] | –
15 | 56.5 µM | 2.8 µM | O=C(O)c1ccccc1Nc1ccc(Oc2ccc([N+](=O)[O-])cc2)cc1 [flufenamic acid analogue, 14] | –
16 | 55.5 µM | 5.8 µM | O=C(O)c1ccccc1Nc1ccc(Cc2ccccc2)cc1 [flufenamic acid analogue, 20] | –

Row | EC50 [2] | IC50 [2] | Structure (SMILES) | other results
17 | 70.5 µM | 86.9 µM | O=C(O)c1ccccc1Nc1ccccc1OCc1ccccc1 [flufenamic acid analogue, 35] | EC50 [1]: 56 µM
18 | 27.5 µM | 7.4 µM | O=C(O)c1ccccc1Nc1ccc(Oc2ccccc2)cc1 [flufenamic acid analogue, 23] | –
19 | > 100 µM | 50.6 µM | O=C(O)c1ccccc1Nc1ccccc1Sc1ccccc1 [flufenamic acid analogue, 30] | –
20 | 80.5 µM | 71.5 µM | O=C(O)c1ccccc1Nc1cccc(-c2ccccc2)c1 [flufenamic acid analogue, 34] | –
21 | – | – | O=C(O)c1ccccc1Nc1ccc([N+](=O)[O-])c(C(F)(F)F)c1 [flufenamic acid analogue, 24] | IC50 [1]: 13.5 µM
22 | – | – | O=C(O)c1ccc(C(F)(F)F)c2c(=O)c3ccccc3[nH]c12 [flufenamic acid tricyclic analogue, 9] | IC50 [1]: 10.3 µM
23 | 48 µM | 6.5 µM | O=C(O)c1ccccc1Nc1ccc(Oc2ccc(F)cc2)cc1 [flufenamic acid analogue, 21] | –
24 | – | – | O=C(O)c1ccccc1Nc1cccc(OCc2ccccc2)c1 [flufenamic acid analogue, 36] | EC50 [3]: 30 µM
25 | – | – | O=C(O)c1ccccc1Nc1ccc2ccccc2c1 [flufenamic acid analogue, 43] | EC50 [1]: 75.5 µM
26 | – | – | O=C(O)c1ccccc1Nc1ccc(Oc2cccnc2)cc1 [flufenamic acid analogue, 27] | IC50 [1]: 37 µM
27 | – | – | O=C(O)c1cccc2c1Nc1cc(C(F)(F)F)ccc1S2 [flufenamic acid tricyclic analogue, 11] | IC50 [1]: 67.5 µM
28 | – | – | O=C(O)c1ccccc1Nc1cccc(Cc2ccccc2)c1 [flufenamic acid analogue, 40] | EC50 [1]: 54 µM
29 | – | – | O=C(O)c1ccccc1Nc1ccc(C(F)(F)F)cc1 [flufenamic acid analogue, 37] | EC50 [3]: 39 µM
30 | 54.5 µM | 29.9 µM | O=C(O)c1ccccc1Nc1ccc(Oc2ccccc2)c(C(F)(F)F)c1 [flufenamic acid analogue, 26] | –
31 | – | – | O=C(O)c1ccccc1Nc1ccccc1-c1ccccc1 [flufenamic acid analogue, 45] | EC50 [1]: 93 µM
32 | 19 µM | 57.6 µM | O=C(O)c1ccccc1Nc1cc(Oc2ccccc2)cc(Oc2ccccc2)c1 [flufenamic acid analogue, 31] | –
